Test results as given in patent EP4104902B1, “COMPOUNDS AND M[…] SAME” (priority 2020, dated 2021).
Where two headings read alike, the source gives them in different places.

How the values were obtained:
[1] = system: recombinant rabies virus 1088 strain expressing Gaussia Luciferase (GLuc) (1088/GLuc); format: cell-based
[2] = system: mouse neuroblastoma cell strain Neuro-2A; assay: Anti-cancer cell activity evaluation (minimum inhibitory concentration with respect to cells); format: cell-based; details: MIC, compounds of formula XXIB, 3 days

Structure (SMILES)	IC50 ([1]; read-out: Anti-rabies activity)	Anti-cancer cell activity [2]	IC50 ([1]; read-out: IC50)
CC(C)CN1C[C@@H]2C[C@H]3CN[C@]2(C(=O)NCc2ccc(Cl)cc2)[C@@H]1[C@@H]3CCc1ccccc1 (relative stereo) [IB-925]	< 5 µM	c (c if greater than 20 µM and less than or equal to 40 µM)	
CC(C)CN1C[C@@H]2C[C@H]3CN[C@]2(C(=O)NCc2cccc(Cl)c2)[C@@H]1[C@@H]3CCc1ccccc1 (relative stereo) [IB-926]	< 5 µM	b (b if greater than 10 µM and less than or equal to 20 µM)	
COc1ccc(CNC(=O)[C@]23NC[C@@H]4C[C@H]2CN(CC(C)C)[C@H]3[C@@H]4CCc2ccccc2)cc1 (relative stereo) [IB-927]	< 5 µM	c (c if greater than 20 µM and less than or equal to 40 µM)	
Cc1ccc(CNC(=O)[C@]23NC[C@@H]4C[C@H]2CN(CC(C)C)[C@H]3[C@@H]4CCc2ccccc2)cc1 (relative stereo) [IB-928]	< 5 µM	c (c if greater than 20 µM and less than or equal to 40 µM)	
CC(C)CN1C[C@@H]2C[C@H]3CN[C@]2(C(=O)NCc2ccc4ccccc4c2)[C@@H]1[C@@H]3CCc1ccccc1 (relative stereo) [IB-929]	< 5 µM	b (b if greater than 10 µM and less than or equal to 20 µM)	
CC(C)CN1C[C@@H]2C[C@H]3CN[C@]2(C(=O)NCc2ccccc2)[C@@H]1[C@@H]3CCCc1ccccc1 (relative stereo) [IB-930]	< 5 µM	c (c if greater than 20 µM and less than or equal to 40 µM)	
CC(C)CN1C[C@@H]2C[C@H]3CN[C@]2(C(=O)NCc2cccc(Cl)c2)[C@@H]1[C@@H]3CCCc1ccccc1 (relative stereo) [IB-931]	< 5 µM	c (c if greater than 20 µM and less than or equal to 40 µM)	
CC(C)CN1C[C@@H]2C[C@H]3CN[C@]2(C(=O)NCc2cccc(F)c2)[C@@H]1[C@@H]3CCCc1ccccc1 (relative stereo) [IB-932]	< 5 µM	c (c if greater than 20 µM and less than or equal to 40 µM)	
Cc1cccc(CNC(=O)[C@]23NC[C@@H]4C[C@H]2CN(CC(C)C)[C@H]3[C@@H]4CCCc2ccccc2)c1 (relative stereo) [IB-933]	< 5 µM	b (b if greater than 10 µM and less than or equal to 20 µM)	
COc1cccc(CNC(=O)[C@]23NC[C@@H]4C[C@H]2CN(CC(C)C)[C@H]3[C@@H]4CCCc2ccccc2)c1 (relative stereo) [IB-934]	< 5 µM	b (b if greater than 10 µM and less than or equal to 20 µM)	
CC(C)CN1C[C@@H]2C[C@H]3CN[C@]2(C(=O)NCc2cccc(Cl)c2)[C@@H]1[C@@H]3CCCCc1ccccc1 (relative stereo) [IB-935]	< 5 µM	c (c if greater than 20 µM and less than or equal to 40 µM)	
CC(C)CN1C[C@@H]2C[C@H]3CN[C@]2(C(=O)NCc2cccc(F)c2)[C@@H]1[C@@H]3CCCCc1ccccc1 (relative stereo) [IB-936]	< 5 µM	b (b if greater than 10 µM and less than or equal to 20 µM)	
CC(C)CC1C2CNC3(C(=O)NCc4ccc5ccccc5c4)C(C2)CN(Cc2ccccc2)C13 (centres unmarked) [IB-879]	< 5 µM		
CCN1CC2CC3CN(Cc4ccc(C)cc4)C(C2CC(C)C)C31C(=O)NCc1ccccc1 (centres unmarked) [IB-880]	< 5 µM		
Cc1ccc(CN2CC3CC4CN(CC(C)C)C3(C(=O)NCc3ccccc3)C2C4CC(C)C)cc1 (centres unmarked) [IB-881]	< 5 µM		
Cc1ccc(CN2CC3CC4CN(C(=O)CC(C)C)C3(C(=O)NCc3ccccc3)C2C4CC(C)C)cc1 (centres unmarked) [IB-883]	< 5 µM		
COC(=O)N1CC2CC3CN(Cc4ccc(C)cc4)C(C2CC(C)C)C31C(=O)NCc1ccccc1 (centres unmarked) [IB-885]	5 to 10 µM		
Cc1ccc(CN2CC3CC4CN(C(=O)OCC(C)C)C3(C(=O)NCc3ccccc3)C2C4CC(C)C)cc1 (centres unmarked) [IB-886]	5 to 10 µM		
Cc1ccc(CN2CC3CC4CN(C(=O)OCc5ccccc5)C3(C(=O)NCc3ccccc3)C2C4CC(C)C)cc1 (centres unmarked) [IB-887]	5 to 10 µM		
Cc1ccc(CN2CC3CC4CN(C(N)=O)C3(C(=O)NCc3ccccc3)C2C4CC(C)C)cc1 (centres unmarked) [IB-888]	10 to 30 µM		
Cc1ccc(CN2CC3CC4CN(C(=O)NCc5ccccc5)C3(C(=O)NCc3ccccc3)C2C4CC(C)C)cc1 (centres unmarked) [IB-889]	5 to 10 µM		
CC(C)CC1C2CNC3(C(=O)NCc4cccc(O)c4)C(C2)CN(Cc2ccc(N(C)C)cc2)C13 (centres unmarked) [IB-891]	10 to 30 µM		
CC(C)CC1C2CNC3(C(=O)NCc4ccc(O)cc4)C(C2)CN(Cc2ccc(N(C)C)cc2)C13 (centres unmarked) [IB-892]	10 to 30 µM		

Structure (SMILES)	IC50 ([1]; read-out: Anti-rabies activity)	Anti-cancer cell activity [2]	IC50 ([1]; read-out: IC50)
CC(C)CC1C2C3CNC1(C(=O)NCc1ccccc1)CC3CN2Cc1ccccc1 (centres unmarked) [IF-7]	5 to 10 µM		8.5 µM
CC(C)CCN1CC2CC3(C(=O)NCc4ccccc4)NCC2C1C3Cc1ccccc1 (centres unmarked) [IF-9]	10 to 30 µM		15.6 µM
NC(=O)CN1CC2CC3(C(=O)NCCc4ccccc4)NCC2C1C3Cc1cccc2ccccc12 (centres unmarked) [IF-90]	10 to 30 µM		
NC(=O)CN1CC2CC3(C(=O)NCc4cccc5ccccc45)NCC2C1C3Cc1cccc2ccccc12 (centres unmarked) [IF-91]	< 5 µM		
CC(C)CCN1CC2CC3(C(=O)NC(C)C)NCC2C1C3CCCNC(=N)N (centres unmarked) [IF-214]	10 to 30 µM		
NC(=O)CCNC(=O)C12CC3CN(CCc4ccccc4)C(C3CN1)C2CC(N)=O (centres unmarked) [IF-219]	10 to 30 µM		
NC(=O)CC1C2C3CNC1(C(=O)NCc1cccc4ccccc14)CC3CN2CCc1ccccc1 (centres unmarked) [IF-223]	10 to 30 µM		
CC(C)CNC(=O)C12CC3CN(Cc4cccc5ccccc45)C(C3CN1)C2CC(N)=O (centres unmarked) [IF-226]	10 to 30 µM		
NC(=O)CC1C2C3CNC1(C(=O)NCCO)CC3CN2Cc1cccc2ccccc12 (centres unmarked) [IF-230]	10 to 30 µM		
CC(C)CCNC(=O)C12CC3CN(CCCNC(=N)N)C(C3CN1)C2Cc1cccc2ccccc12 (centres unmarked) [IF-356]	10 to 30 µM		
N=C(N)NCCCN1CC2CC3(C(=O)NCCc4ccccc4)NCC2C1C3Cc1ccc(O)cc1 (centres unmarked) [IF-359]	10 to 30 µM		
O=C(O)CCNC(=O)C12CC3CN(CC4CCCCC4)C(C3CN1)C2Cc1cccc2ccccc12 (centres unmarked) [IF-416]	10 to 30 µM		
O=C(O)CCNC(=O)C12CC3CN(Cc4ccc(F)cc4)C(C3CN1)C2Cc1cccc2ccccc12 (centres unmarked) [IF-417]	10 to 30 µM		
O=C(O)CCC1C2C3CNC1(C(=O)NCc1cccc4ccccc14)CC3CN2CC1CCCCC1 (centres unmarked) [IF-419]	10 to 30 µM		
CC(C)CCC1C2C3CNC1(C(=O)NCc1cccc4ccccc14)CC3CN2CCC(=O)O (centres unmarked) [IF-422]	10 to 30 µM		
CC(C)CN1CC2CC3(C(=O)NCCC(=O)O)NCC2C1C3Cc1cccc2ccccc12 (centres unmarked) [IF-428]	10 to 30 µM		
NC(=O)CCNC(=O)C12CC3CN(Cc4cccc5ccccc45)C(C3CN1)C2Cc1ccc(O)cc1 (centres unmarked) [IF-435]	< 5 µM		
CC(C)CCN1CC2CC3(C(=O)NCCc4ccccc4)NCC2C1C3CC(C)C (centres unmarked) [IF-437]	10 to 30 µM		
O=C(NCCc1ccccc1)C12CC3CN(CC4CCCCC4)C(C3CN1)C2Cc1ccc(O)cc1 (centres unmarked) [IF-439]	< 5 µM		
O=C(O)CCNC(=O)C12CC3CN(CCO)C(C3CN1)C2Cc1cccc2ccccc12 (centres unmarked) [IF-444]	10 to 30 µM		
CC(C)CCN1CC2CC3(C(=O)NCc4ccc(O)cc4)NCC2C1C3CCC(=O)O (centres unmarked) [IF-445]	10 to 30 µM		
O=C(O)CCC1C2C3CNC1(C(=O)NCc1ccc(O)cc1)CC3CN2CC1CCCCC1 (centres unmarked) [IF-447]	10 to 30 µM		
O=C(O)CCN1CC2CC3(C(=O)NCCO)NCC2C1C3Cc1cccc2ccccc12 (centres unmarked) [IF-452]	10 to 30 µM		

Structure (SMILES)	IC50 ([1]; read-out: Anti-rabies activity)	Anti-cancer cell activity [2]	IC50 ([1]; read-out: IC50)
CC(C)CNC(=O)C12CC3CN(CCC(=O)O)C(C3CN1)C2CCc1ccccc1 (centres unmarked) [IF-454]	10 to 30 µM		
CC(C)CNC(=O)C12CC3CN(CCC(=O)O)C(C3CN1)C2Cc1ccc(O)cc1 (centres unmarked) [IF-455]	10 to 30 µM		
CC(C)CCC1C2C3CNC1(C(=O)NCc1ccc(O)cc1)CC3CN2CCC(=O)O (centres unmarked) [IF-458]	10 to 30 µM		
O=C(NCc1cccc2ccccc12)C12CC3CN(Cc4ccccc4)C(C3CN1)C2Cc1ccccc1 (centres unmarked) [IF-805]	10 to 30 µM		
CC(C)CC1C2C3CNC1(C(=O)NCc1ccc(F)cc1)CC3CN2Cc1ccccc1 (centres unmarked) [IF-807]	< 5 µM		
CC(C)CN1CC2CC3(C(=O)NCc4ccc(F)cc4)NCC2C1C3Cc1ccccc1 (centres unmarked) [IF-815]	< 5 µM		
CC(C)CCN1CC2CC3(C(=O)NCCC(=O)O)NCC2C1C3CCc1ccccc1 (centres unmarked) [IF-830]	10 to 30 µM		
CC(C)CC1C2C=NC3(C(=O)NCc4ccccc4)C(C2)CN(Cc2ccc(Cl)cc2)C13 (centres unmarked) [IIB-83]	< 5 µM		
CC(C)CC1C2C=NC3(C(=O)NCc4ccccc4)C(C2)CN(Cc2cccc(Cl)c2)C13 (centres unmarked) [IIB-84]	< 5 µM		
COc1ccc(CN2CC3CC4C=NC3(C(=O)NCc3ccccc3)C2C4CC(C)C)cc1 (centres unmarked) [IIB-85]	5 to 10 µM		
Cc1ccc(CN2CC3CC4C=NC3(C(=O)NCc3ccccc3)C2C4CC(C)C)cc1 (centres unmarked) [IIB-86]	5 to 10 µM		
CC(C)CC1C2C=NC3(C(=O)NCc4ccccc4)C(C2)CN(Cc2ccc(N(C)C)cc2)C13 (centres unmarked) [IIB-94]	5 to 10 µM		
CN1CC2CC3C=NC2(C(=O)NCCc2cccc4cccnc24)C1C3Cc1ccccc1 (centres unmarked) [IIB-329]	< 5 µM		
CN1CC2CC3C=NC2(C(=O)NCCc2cccc4ncccc24)C1C3Cc1ccccc1 (centres unmarked) [IIB-330]	< 5 µM		
COc1ccc(CNC(=O)C23N=CC4CC2CN(CC(C)C)C3C4CCc2ccccc2)cc1 (centres unmarked) [IIB-333]	< 5 µM		
CC(C)CC1C2C3C=NC1(C(=O)NCc1ccccc1)CC3CN2Cc1ccc(Cl)cc1 (centres unmarked) [IIF-83]	< 5 µM		
CC(C)CC1C2C3C=NC1(C(=O)NCc1ccccc1)CC3CN2Cc1cccc(Cl)c1 (centres unmarked) [IIF-84]	5 to 10 µM		
COc1ccc(CN2CC3CC4(C(=O)NCc5ccccc5)N=CC3C2C4CC(C)C)cc1 (centres unmarked) [IIF-85]	5 to 10 µM		
Cc1ccc(CN2CC3CC4(C(=O)NCc5ccccc5)N=CC3C2C4CC(C)C)cc1 (centres unmarked) [IIF-86]	< 5 µM		
CC(C)CC1C2C3C=NC1(C(=O)NCc1ccccc1)CC3CN2Cc1ccc(N(C)C)cc1 (centres unmarked) [IIF-94]	5 to 10 µM		
CC(C)CC1C2C3C=NC1(C(=O)NCc1ccccc1)CC3CN2Cc1ccc(C(C)(C)C)cc1 (centres unmarked) [IIF-95]	< 5 µM		
CC(C)CC1C2C3C=NC1(C(=O)NCc1ccccc1)CC3CN2Cc1ccc(OC(F)(F)F)cc1 (centres unmarked) [IIF-96]	5 to 10 µM		
CCOc1ccc(CN2CC3CC4(C(=O)NCc5ccccc5)N=CC3C2C4CC(C)C)cc1 (centres unmarked) [IIF-97]	10 to 30 µM		
